From US11083737B1, “Methods of administering deflazacort therapy” (PTC Therapeutics, Inc., priority 2016, dated 2021)

Tests used:
[1] = Phase 1 open label pharmacokinetic study of oral deflazacort tablets (0.9 mg/kg/day, 8 days) in children and adolescents with DMD; assay type: in vivo, human; settings: for geometric mean terminal elimination half-life: Day 1; for time by which plasma concentrations were quantifiable (first post-dose sample): all children and adolescents, Days 1 and 8
Experimental: FIG. 1 is a line graph illustrating mean plasma 21-desDFZ (active deflazacort metabolite) concentration (ng/mL; y-axis) vs. time (hours; x-axis) overlaid by study population on Day 8 (linear scale; circles=adolescent; triangles=child). Children (ages 5-11, inclusive) and adolescents (ages 12-16, inclusive) were administered the weight-based regimen of 0.9 mg/kg/day deflazacort orally once daily for 8 days. Blood samples were collected through eight hours post-dose. Blood samples were processed to plasma and concentrations of 21-desDFZ were measured using validated bioanalytical assays.
Pharmacokinetic analysis was performed as part of an open label, Phase 1 single-period study. Twenty-six (26) male DMD subjects were enrolled, consisting of children (ages 4 up to 12) and adolescents (ages 12 to 16, inclusive) with at least 12 subjects between the ages of 4 and 12 (children). The primary objective of the study was characterization of the single-dose and steady-state PK of deflazacort and its active deflazacort metabolite (21-desDFZ). The characterization of the PK of the 21-desDFZ metabolite 6β-OH-21-desDFZ was included as a secondary outcome. A total of 24 subjects (16 children and 8 adolescents) received deflazacort tablets (0.9 mg/kg/day) for 8 days. Blood samples for PK profiles were collected on Days 1 and 8. All 24 subjects who completed the study had sufficient data to use in the PK analysis. Plasma 21-desDFZ concentrations were quantifiable by the time of the first post-dose sample collection (0.5 hours) in all children and adolescents on Days 1 and 8. Plasma 21-desDFZ concentrations remained above the limit of quantification in most subjects over the 8-hour sampling window on both study days.

[2] = Applicants' clinical observation of deflazacort in ambulatory and non-ambulatory DMD patients; assay type: in vivo, human; settings: as early as six weeks after treatment initiation, preserved up to 24-months
[3] = Day 1, deflazacort 0.9 mg/kg/day orally
[4] = Day 8, deflazacort 0.9 mg/kg/day orally
[5] = Days 1 and 8, deflazacort 0.9 mg/kg/day orally
[6] = after a single oral dose of deflazacort and at steady-state

geometric mean Cmax, adolescents relative to children [1, 3]	geometric mean Cmax, adolescents relative to children [1, 4] [fold]	geometric mean AUCinf, adolescents relative to children [1, 5]	geometric mean AUClast, adolescents relative to children [1, 5]	geometric mean terminal elimination half-life ([1]; adolescents) [h]	time by which plasma concentrations were quantifiable (first post-dose sample) [1] [h]	geometric mean terminal elimination half-life ([1]; children) [h]	mean plasma concentration in children as percent of that observed in adolescents ([1]; about one hour following administration, Day 8, deflazacort 0.9 mg/kg/day orally) [%]	clearance (CL/F), children vs adolescents [1, 6]	volume of distribution (Vd/F), children vs adolescents [1, 6]	Compound	muscle strength in ambulatory and non-ambulatory patients [2]
roughly 1.25 fold	~1.30	roughly 1.25 Fold	roughly 1.25 Fold	1.72	≤ 0.5	1.63	–	–	–	CC1=N[C@]2(C(=O)CO)[C@@H](C[C@H]3[C@@H]4C[C@@H](O)C5=CC(=O)C=C[C@]5(C)[C@H]4[C@@H](O)C[C@@]32C)O1 [6β-OH-21-desDFZ]	–
–	–	–	–	–	–	–	–	–	–	CC(=O)OCC(=O)[C@@]12N=C(C)O[C@@H]1C[C@H]1[C@@H]3CCC4=CC(=O)C=C[C@]4(C)[C@H]3[C@@H](O)C[C@@]12C [deflazacort, (11β,16β)-21-(acetyloxy)-11-hydroxy-2′-methyl-5′H-pregna-1,4-dieno[17,16-d]oxazole-3,20-dione]	improves muscle strength
almost double	1.5	–	–	1.34	≤ 0.5	1.17	67	no differences	no differences	CC1=N[C@]2(C(=O)CO)[C@@H](C[C@H]3[C@@H]4CCC5=CC(=O)C=C[C@]5(C)[C@H]4[C@@H](O)C[C@@]32C)O1 [21-desDFZ, 21-desacetyldeflazacort]	–
